# Data published in patent publication US8383622B2 (priority 2007, dated 2013).
# Tests used:
# Human 11β-HSD1 = Human 11β-HSD1 (Homo sapiens, UniProt P28845); assay: Evaluation of compound against human 11β-HSD1 (HTRF cortisol assay, cortisone substrate); format: biochemical; conditions: cortisone 5 μM, 37° C. 2 hours
# Description: Evaluation Method of […] Inhibitor (Evaluation of Compound Against Human 11β-HSD1)
# (§1) After preincubating an inhibitor in a reaction solution consisting of 50 mM sodium phosphate buffer (pH 7.5), bovine serum albumin (1 mg/mL), NADPH (0.42 mg/mL), glucose-6-phosphate (1.26 mg/mL), glucose-6-phosphate dehydrogenase and an enzyme at room temperature for 30), (Inutes, cortisone (5 μM) was added as a substrate (total amount 10 μL). After reacting at 37° C. for 2 hours, an XL-665-labeled cortisol solution (5 μL), and a Cryptate-labeled anti-cortisol antibody solution (5 μL) were added. The reaction was performed at room temperature for 2 hours, and fluorescence intensity (HTRF method) was measured. A cortisol concentration was calculated from a standard curve prepared using a known concentration of cortisol for each assay.
# (§2) Taking a concentration of cortisol generated in the absence of the inhibitor as a control value, 50% inhibitory concentration (IC50 value) of the inhibitor against 11β-HSD1 was calculated from an inhibition curve plotting inhibition rate against the control value at each concentration of an inhibitor.
# Mouse 11β-HSD1 = Mouse 11β-HSD1 (Mus musculus, UniProt P50172); assay: Evaluation of compound against mouse 11β-HSD1 (HTRF assay, 11-dehydrocorticosterone substrate); format: biochemical; conditions: 11-dehydrocorticosterone 2 μM, 37° C. 2 hours
# Description: Evaluation Method of 11β-HSD1 Inhibitor (Evaluation of Compound Against Mouse 11β-HSD1)
# as §1, with “dehydrogenase,” for “dehydrogenase”, “30 minutes, 11-dehydrocorticosterone (2” for “30), (Inutes, cortisone (5”, “measured.” for “measured. A cortisol concentration was calculated from a standard curve prepared using a known concentration of cortisol for each assay.”
# A corticosterone concentration was calculated from a standard curve prepared using a known concentration of corticosterone for each assay.
# as §2, with “of corticosterone” for “of cortisol”, “of the” for “of an”
# [1] = log k′ (degree of lipophilic character) by gradient HPLC; format: physicochemical; conditions: XTerra MS C18 column; acetonitrile/pH6.8 buffer gradient 5:95-95:5/20 min
# Description: As to each compound, the measurement results of NMR or log k′ were disclosed.
# log k′ is a value which means degree of the lipophilic character, and is calculated by the following formula. log k′=log(tR−t0)/t0 • tR: retention time of compound under gradient condition • t0: retention time of standard material not retained in column
# XTerra MS C18 5 μm, 2.1×100 mm column (made by Waters) was used for measurement. The elution was a straight line inclination of acetonitrile/pH6.8 buffer (5:95˜95:5/20 min) at flow velocity 0.25 mL/min.
# Human 11β-HSD1, sequence (P28845 whole entry): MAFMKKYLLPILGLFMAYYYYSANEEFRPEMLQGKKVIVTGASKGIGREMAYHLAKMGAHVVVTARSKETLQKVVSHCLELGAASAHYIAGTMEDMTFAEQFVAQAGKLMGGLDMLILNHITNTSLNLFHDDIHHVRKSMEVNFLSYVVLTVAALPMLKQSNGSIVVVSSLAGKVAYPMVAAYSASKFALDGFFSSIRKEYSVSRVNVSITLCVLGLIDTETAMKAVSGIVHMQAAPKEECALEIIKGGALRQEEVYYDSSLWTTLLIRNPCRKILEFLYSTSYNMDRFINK
# Mouse 11β-HSD1, sequence (P50172 whole entry): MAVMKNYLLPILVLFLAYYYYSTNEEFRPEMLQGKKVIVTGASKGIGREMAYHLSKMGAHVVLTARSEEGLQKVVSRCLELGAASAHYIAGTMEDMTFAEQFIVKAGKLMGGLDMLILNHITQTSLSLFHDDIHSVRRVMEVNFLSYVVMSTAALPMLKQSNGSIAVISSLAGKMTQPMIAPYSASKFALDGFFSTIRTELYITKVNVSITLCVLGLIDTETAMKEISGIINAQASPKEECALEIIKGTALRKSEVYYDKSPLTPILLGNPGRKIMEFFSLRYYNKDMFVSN
IC50 (Human 11β-HSD1) [nM],IC50 (Mouse 11β-HSD1) [nM],SMILES,log k′ [1]
3.4,0.41,CC(C)COc1c(C(=O)N[C@H]2C3CC4CC2C[C@](OC(N)=O)(C4)C3)cnn1/C=C/C(C)(C)C#N [Compound I-7],
11,1.7,CC(C)COc1c(C(=O)N[C@H]2C3CC4CC2C[C@](OC(N)=O)(C4)C3)cnn1/C=C/C(C)(C)NS(C)(=O)=O [Compound I-9],
1.2,1,CC(C)COc1c(C(=O)N[C@H]2C3CC4CC2C[C@](O)(C4)C3)cnn1/C=C/C(C)(C)NC(=O)CCC1CCCC1 [Compound I-36],
1.4,0.21,CC(C)COc1c(C(=O)N[C@H]2C3CC4CC2C[C@](CO)(C4)C3)cnn1/C=C/C(C)(C)C(N)=O [Compound I-63],
,,CC(=O)NCC(C)(C)/C=C/n1ncc(C(=O)N[C@H]2C3CC4CC2C[C@](OC(N)=O)(C4)C3)c1OCC(C)C [Compound I-68],0.85
,,CCC(=O)NC(C)(C)/C=C/n1ncc(C(=O)N[C@H]2C3CCCC2C[C@@H](CO)C3)c1OCC(C)C [Compound I-69],0.866
,,CCC(=O)NC(C)(C)/C=C/n1ncc(C(=O)N[C@H]2C3CCCC2C[C@@H](COC(N)=O)C3)c1OCC(C)C [Compound I-70],0.882
,,CCNC(=O)C(C)(C)/C=C/n1ncc(C(=O)N[C@H]2C3CC4CC2C[C@](OC(N)=O)(C4)C3)c1OCC(C)C [Compound I-71],0.868
,,CC(C)COc1c(C(=O)NC2C3CC4CC2CC(OC(N)=O)(C4)C3)cnn1/C=C/C(C)(C)CO (centres unmarked) [Compound I-73],0.876
,,CC(C)COc1c(C(=O)N[C@H]2C3CC4CC2C[C@](COC(N)=O)(C4)C3)cnn1/C=C/C(C)(C)CO [Compound I-74],0.896
,,CC(C)COc1c(C(=O)N[C@H]2C3CC4CC2C[C@](OC(N)=O)(C4)C3)cnn1/C=C/C(C)(C)NC(=O)COc1ccccc1 [Compound I-75],0.95
,,CC(C)COc1c(C(=O)N[C@H]2C3CC4CC2C[C@](OC(N)=O)(C4)C3)cnn1/C=C/C(C)(C)NC(=O)CCc1ccccc1 [Compound I-76],0.946
0.62,0.23,CC(C)COc1c(C(=O)NC2C3CC4CC2CC(O)(C4)C3)cnn1C=CC(C)(C)NC(=O)COCc1ccccc1 (centres unmarked) [Compound I-77],
,,CC(C)COc1c(C(=O)N[C@H]2C3CC4CC2C[C@](O)(C4)C3)cnn1/C=C/C(C)(C)NC(=O)C1CCOCC1 [Compound I-79],0.818
,,CC(C)COc1c(C(=O)N[C@H]2C3CC4CC2C[C@](OC(N)=O)(C4)C3)cnn1/C=C/C(C)(C)NC(=O)C1CCOCC1 [Compound I-80],0.852
,,CC(C)COc1c(C(=O)N[C@H]2C3CC4CC2C[C@](O)(C4)C3)cnn1/C=C/C(C)(C)NC(=O)N1CCOCC1 [Compound I-81],0.813
,,CC(C)COc1c(C(=O)NC2C3CC4(O)CC2CC(O)(C3)C4)cnn1/C=C/C(C)(C)C(N)=O (centres unmarked) [Compound I-82],0.682
,,CC(C)COc1c(C(=O)N[C@H]2C3CC4CC2C[C@](COC(N)=O)(C4)C3)cnn1/C=C/C(C)(C)C(=O)NC(N)=O [Compound I-83],0.87
154,4.9,CC(=O)NC(C)(C)/C=C/n1ncc(C(=O)N[C@H]2C3CC4CC2C[C@](CO)(C4)C3)c1CC(C)C [Compound I-121],
88.1,3,COC(=O)NC(C)(C)/C=C/n1ncc(C(=O)N[C@H]2C3CC4CC2C[C@](OC(N)=O)(C4)C3)c1-c1ccccc1 [Compound I-127],
62.4,5.5,COC(=O)NC(C)(C)/C=C/n1ncc(C(=O)N[C@H]2C3CC4CC2C[C@](F)(C4)C3)c1-c1ccccc1 [Compound I-128],
75.6,0.52,COC(=O)NC(C)(C)/C=C/n1ncc(C(=O)N[C@H]2C3CC4CC2C[C@](O)(C4)C3)c1-n1cccn1 [Compound I-133],
64.4,0.37,COC(=O)NC(C)(C)/C=C/n1ncc(C(=O)NC2C3CC4CC2CC(COC(N)=O)(C4)C3)c1-n1cccn1 (centres unmarked) [Compound I-139],

SMILES,IC50 (Human 11β-HSD1) [nM],IC50 (Mouse 11β-HSD1) [nM],log k′ [1]
CC(=O)NC(C)(C)/C=C/n1ncc(C(=O)N[C@H]2C3CC4CC2C[C@](CO)(C4)C3)c1-c1ccccc1 [Compound I-131],20.8,1.4,
